Molecular target: β-galactosidase (Escherichia coli, UniProt P00722)
Assay: Kinetics of β-galactosidase hydrolysis of p-NPBG and its inhibition by diethanolamine
Type: biochemical
Settings: about 1M diethanolamine, pH 8.6, normal p-NPBG concentrations (up to approximately 5mM)
Description: β-galactosidase has a pH optimum of 7.4 for p-nitrophenyl-β-D-galactoside (p-NPBG), although in a single assay format using normal substrate concentrations (up to approximately 5mM), the pH can be raised to 8.6 with only a slight loss (approximately 20%) of activity.

β-galactosidase, sequence (P00722 2-1024): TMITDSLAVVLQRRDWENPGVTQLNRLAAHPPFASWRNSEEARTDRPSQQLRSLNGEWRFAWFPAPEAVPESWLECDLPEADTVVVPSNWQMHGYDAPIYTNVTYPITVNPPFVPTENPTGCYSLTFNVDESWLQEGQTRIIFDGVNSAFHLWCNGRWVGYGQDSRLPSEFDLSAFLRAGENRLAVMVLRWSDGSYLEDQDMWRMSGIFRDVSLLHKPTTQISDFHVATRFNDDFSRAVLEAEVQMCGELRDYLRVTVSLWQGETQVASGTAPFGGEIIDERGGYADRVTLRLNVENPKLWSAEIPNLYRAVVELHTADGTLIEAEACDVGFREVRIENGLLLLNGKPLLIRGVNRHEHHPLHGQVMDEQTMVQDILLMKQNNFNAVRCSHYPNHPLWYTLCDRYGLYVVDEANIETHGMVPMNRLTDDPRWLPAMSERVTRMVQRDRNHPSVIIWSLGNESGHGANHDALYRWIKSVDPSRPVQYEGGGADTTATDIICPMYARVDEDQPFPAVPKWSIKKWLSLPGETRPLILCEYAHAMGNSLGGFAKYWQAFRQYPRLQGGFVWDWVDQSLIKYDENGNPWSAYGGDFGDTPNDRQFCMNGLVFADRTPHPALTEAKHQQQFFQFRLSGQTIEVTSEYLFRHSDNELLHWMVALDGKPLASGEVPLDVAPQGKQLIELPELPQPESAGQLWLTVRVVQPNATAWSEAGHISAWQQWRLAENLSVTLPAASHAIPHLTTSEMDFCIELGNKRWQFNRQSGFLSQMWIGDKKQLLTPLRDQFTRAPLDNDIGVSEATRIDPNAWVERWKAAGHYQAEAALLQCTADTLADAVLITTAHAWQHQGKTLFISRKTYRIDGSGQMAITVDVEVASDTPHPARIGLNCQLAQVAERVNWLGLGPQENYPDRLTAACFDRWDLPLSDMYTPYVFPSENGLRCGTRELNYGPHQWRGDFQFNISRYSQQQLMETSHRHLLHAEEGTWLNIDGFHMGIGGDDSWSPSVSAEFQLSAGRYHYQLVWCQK

**Q.** For `OCCNCCO` [diethanolamine], which “activity of β-galactosidase in the presence of diethanolamine” value is on record?
**A.** Its value is “almost totally abolished”.
